The values that follow come from PMC8286840, “Identifying SARS-CoV-2 antiviral compounds by screening for small molecule inhibitors of Nsp3 papain-like protease” (Biochemical Journal, 2021).

Where a name gives a salt, the structure may show the parent alone. Read-outs that look alike come from different tables or passages of the source.

Test [1] concerns the target T1, SARS-CoV-2 PLpro (nsp3 1564–1878) (Severe acute respiratory syndrome coronavirus 2, UniProt P0DTD1). Briefly: biochemical. Set-up: FRET-quenched peptide (Pro3) cleavage by PLpro, 10 min pre-incubation, slope over 20 min, normalised to no-compound control. The settings on record: high concentration screen, read-out: % of control remaining.
Test [2] addresses T1, SARS-CoV-2 PLpro (nsp3 1564–1878). The experiment in a line: biochemical. The arrangement: FRET-quenched peptide (Pro3) cleavage by PLpro, 10 min pre-incubation, slope over 20 min, normalised to no-compound control. As to conditions: low concentration screen, read-out: % of control remaining.

Regarding `O=S(=O)(O)c1cc(S(=O)(=O)O)c2c(N=Nc3ccc(S(=O)(=O)O)c4ccccc34)c(O)ccc2c1` [Ponceau 4R], in test [1] (Well no.=8550), the remaining activity at 3.75 µM came to 102%. Also, the remaining activity at 1.25 µM in test [2] (Well no.=8550) worked out at 104%.
With `CCC/N=C1\S/C(=C\c2ccc(OC[C@H](O)CO)c(Cl)c2)C(=O)N1c1ccccc1C` [Ponesimod], in test [1] (Well no.=8001), the remaining activity at 3.75 µM came out at 102%. Moreover, the remaining activity at 1.25 µM in test [2] (Well no.=8001) is 106%.
Turning to `CC[C@@H]([C@H](C)O)n1ncn(-c2ccc(N3CCN(c4ccc(OC[C@@H]5CO[C@@](Cn6cncn6)(c6ccc(F)cc6F)C5)cc4)CC3)cc2)c1=O` [Posaconazole], in test [1] (Well no.=4763), the remaining activity at 3.75 µM worked out at 92.9%. In addition, the remaining activity at 1.25 µM in test [2] (Well no.=4763) stood at 93.6%.
As to `C#CCC(Cc1cnc2nc(N)nc(N)c2n1)c1ccc(C(=O)N[C@@H](CCC(=O)O)C(=O)O)cc1` (stereo partly drawn) [Pralatrexate], the values for the remaining activity at 3.75 µM in test [1] (Well no.=7550) and in test [1] (Well no.=9172) were 95.8% and 84.5%, respectively. The remaining activity at 1.25 µM in test [2] (Well no.=7550) stood at 97%; in test [2] (Well no.=9172), 83.9%.
In the case of `CCCN[C@H]1CCc2nc(N)sc2C1` [Pramipexole (dihydrochloride)], in test [1] (Well no.=6229), the remaining activity at 3.75 µM turned out to be 106%. Also, in test [2] (Well no.=6229), the remaining activity at 1.25 µM was 108%.
Consider `CCCN[C@H]1CCc2nc(N)sc2C1` [Pramipexole], for which the remaining activity at 3.75 µM in test [1] (Well no.=1983) came out at 104%. For the same compound, the remaining activity at 1.25 µM in test [2] (Well no.=1983) came to 101%.
On to `CC(C)N(CCNC(=O)CN1CCCC1=O)C(C)C` [Pramiracetam], for which, in test [1] (Well no.=4950), the remaining activity at 3.75 µM came to 96.4%. Also, the remaining activity at 1.25 µM in test [2] (Well no.=4950) came to 96.1%.
`O=C(Nc1cccc2c(=O)cc(-c3nnn[nH]3)oc12)c1ccc(OCCCCc2ccccc2)cc1` [Pranlukast]: the remaining activity at 3.75 µM in test [1] (Well no.=1720) came to 101%; in test [1] (Well no.=7329) it was 98.4%. Further, the values for the remaining activity at 1.25 µM in test [2] (Well no.=1720) and in test [2] (Well no.=7329) were 99.8% and 103%, respectively.
With `CC(C(=O)O)c1ccc2c(c1)Cc1cccnc1O2` (stereo not drawn) [Pranoprofen], the remaining activity at 3.75 µM in test [1] (Well no.=2139) turned out to be 99.8%. Further, the remaining activity at 1.25 µM in test [2] (Well no.=2139) amounted to 98.7%.
For `CC(=O)Oc1cc2c(s1)CCN(C(C(=O)C1CC1)c1ccccc1F)C2` (stereo not drawn) [Prasugrel (Effient)], in test [1] (Well no.=4765), the remaining activity at 3.75 µM was 104%. Moreover, the remaining activity at 1.25 µM in test [2] (Well no.=4765) was determined as 103%.
`CC(=O)Oc1cc2c(s1)CCN(C(C(=O)C1CC1)c1ccccc1F)C2` (stereo not drawn) [Prasugrel]: the remaining activity at 3.75 µM in test [1] (Well no.=6562) came to 102%. Besides, the remaining activity at 1.25 µM in test [2] (Well no.=6562) worked out at 97%.
With `COc1ccc(-c2cc(=O)c3ccc(O)cc3o2)cc1` [Pratol], in test [1] (Well no.=3829), the remaining activity at 3.75 µM was determined as 96.6%. In addition, the remaining activity at 1.25 µM in test [2] (Well no.=3829) worked out at 97.5%.
In the case of `COc1ccc(C(=O)c2c(C)n(CCN3CCOCC3)c3ccccc23)cc1` [Pravadoline], in test [1] (Well no.=1805), the remaining activity at 3.75 µM amounted to 97.7%. For the same compound, the remaining activity at 1.25 µM in test [2] (Well no.=1805) worked out at 97.2%.
As to `CC[C@H](C)C(=O)O[C@H]1C[C@H](O)C=C2C=C[C@H](C)[C@H](CC[C@@H](O)C[C@@H](O)CC(=O)O)[C@H]21` [Pravastatin sodium salt hydrate], the remaining activity at 3.75 µM in test [1] (Well no.=5462) came out at 97.8%. Also, in test [2] (Well no.=5462), the remaining activity at 1.25 µM is 96.8%.
On to `CC[C@H](C)C(=O)O[C@H]1C[C@H](O)C=C2C=C[C@H](C)[C@H](CC[C@@H](O)C[C@@H](O)CC(=O)O)[C@H]21` [Pravastatin sodium], for which, in test [1] (Well no.=4889), the remaining activity at 3.75 µM is 96.9%. For the same compound, in test [2] (Well no.=4889), the remaining activity at 1.25 µM worked out at 96.4%.
Consider `O=C(C1CCCCC1)N1CC(=O)N2CCc3ccccc3C2C1` (stereo not drawn) [Praziquantel], for which the values for the remaining activity at 3.75 µM in test [1] (Well no.=908) and in test [1] (Well no.=2155) were 104% and 100%, respectively. The remaining activity at 1.25 µM in test [2] (Well no.=908) amounted to 106%; in test [2] (Well no.=2155) it was 102%.
As to `COc1cc2nc(N3CCN(C(=O)C4=CC5C=CC4CC5)CC3)nc(N)c2cc1OC` (stereo not drawn) [Prazobind], in test [1] (Well no.=1311), the remaining activity at 3.75 µM came out at 105%. The remaining activity at 1.25 µM in test [2] (Well no.=1311) was 104%.
Turning to `COc1cc2nc(N3CCN(C(=O)c4ccco4)CC3)nc(N)c2cc1OC` [Prazosin (hydrochloride)], the remaining activity at 3.75 µM in test [1] (Well no.=6411) came out at 85.9%. Moreover, the remaining activity at 1.25 µM in test [2] (Well no.=6411) was 96.4%.
As to `COc1cc2nc(N3CCN(C(=O)c4ccco4)CC3)nc(N)c2cc1OC` [Prazosin.HCl], the remaining activity at 3.75 µM in test [1] (Well no.=1689) came out at 100%. Besides, the remaining activity at 1.25 µM in test [2] (Well no.=1689) came to 103%.
`CC(=O)OCC(=O)[C@@]1(O)CC[C@H]2[C@@H]3CCC4=CC(=O)C=C[C@]4(C)[C@H]3[C@@H](O)C[C@@]21C` [Prednisolone acetate]: in test [1] (Well no.=5859), the remaining activity at 3.75 µM came to 95.6%. In addition, the remaining activity at 1.25 µM in test [2] (Well no.=5859) is 102%.
With `C[C@]12C=CC(=O)C=C1CC[C@@H]1[C@@H]2[C@@H](O)C[C@@]2(C)[C@H]1CC[C@]2(O)C(=O)CO` [Prednisolone], the remaining activity at 3.75 µM in test [1] (Well no.=6605) worked out at 102%. Further, the remaining activity at 1.25 µM in test [2] (Well no.=2141) stood at 99.3%; in test [2] (Well no.=6605), 102%.
Turning to `C[C@]12C=CC(=O)C=C1CC[C@@H]1[C@@H]2C(=O)C[C@@]2(C)[C@H]1CC[C@]2(O)C(=O)CO` [Prednisone], the remaining activity at 3.75 µM in test [1] (Well no.=2149) came to 103%; in test [1] (Well no.=7429), 101%. Moreover, the results for the remaining activity at 1.25 µM in test [2] (Well no.=2149) and in test [2] (Well no.=7429) were 97.7% and 109%, respectively.
Regarding `CC(=O)[C@H]1CC[C@H]2[C@@H]3CC=C4C[C@@H](OS(=O)(=O)O)CC[C@]4(C)[C@H]3CC[C@]12C` [Pregnenolone sulfate sodium], the remaining activity at 3.75 µM in test [1] (Well no.=1169) is 102%. The remaining activity at 1.25 µM in test [2] (Well no.=1169) was 101%.
Regarding `CC(=O)[C@H]1CC[C@H]2[C@@H]3CC=C4C[C@@H](O)CC[C@]4(C)[C@H]3CC[C@]12C` [Pregnenolone], the remaining activity at 3.75 µM in test [1] (Well no.=2151) turned out to be 103%; in test [1] (Well no.=6277), 102%; in test [1] (Well no.=6919) it was 106%. The figures for the remaining activity at 1.25 µM in test [2] (Well no.=2151), in test [2] (Well no.=6277) and in test [2] (Well no.=6919) were 103%, 106% and 108%, respectively.
Turning to `COCCOc1ccc(N2CCN(CCn3ncc4c3nc(N)n3nc(-c5ccco5)nc43)CC2)cc1` [Preladenant], the remaining activity at 3.75 µM in test [1] (Well no.=7141) stood at 102%. For the same compound, in test [2] (Well no.=7141), the remaining activity at 1.25 µM was found to be 102%.
Consider `CCCNC(C)C(=O)Nc1ccccc1C` (stereo not drawn) [Prilocaine hydrochloride], for which the remaining activity at 3.75 µM in test [1] (Well no.=1355) is 98.5%. Moreover, in test [2] (Well no.=1355), the remaining activity at 1.25 µM turned out to be 97.2%.
Regarding `CCCNC(C)C(=O)Nc1ccccc1C` (stereo not drawn) [Prilocaine], the remaining activity at 3.75 µM in test [1] (Well no.=4616) came to 93.7%. The remaining activity at 1.25 µM in test [2] (Well no.=4616) was 100%.
On to `COc1cc(NC(C)CCCN)c2ncccc2c1` (stereo not drawn) [Primaquine], for which, in test [1] (Well no.=2153), the remaining activity at 3.75 µM was 98.9%. Also, the remaining activity at 1.25 µM in test [2] (Well no.=2153) stood at 97.8%.
